The values below come from patent US20220017520A1, “MACROCYCLIC COMPOUND AS CDK INHIBITOR, PREPARATION METHOD THEREFOR, AND USE THEREOF IN MEDICINE” (Keythera (Suzhou) Pharmaceuticals Co. Ltd., priority 2018, published 2022).

Assay [1] relates to metastatic breast cancer. The settings on record: drug alone, patients with hormone receptor-positive metastatic breast cancer, Phase I; cited from earlier work.
The subject of assay [2] is MCF-7 cells. The experiment in a line: In vitro cell proliferation assay by BrdU method. In kind it is cell-based. The settings on record: 72 hours, 10% FBS. How it is done: In Vitro Cell Inhibitory Activity of the Compound of the Present Invention
Experimental method: Cell proliferation assay was carried out by BrdU method (BrdU cell proliferation assay kit, Cell Signaling Technology Co.)
Preparation of gradient dilution solution of test compound: the 10 mM stock solution of test compound was subjected to 4-fold serial gradient dilution with DMSO to obtain solutions with a concentration of 2.5 mM, […], respectively. 2 μL of DMSO-diluted compound was added to 198 μL of culture medium containing 10% FBS to obtain 10-fold test compound, wherein the maximum concentration of the test compound was 10 μM, the DMSO concentration was 1%, with a total of 7 concentration gradients.
MCF-7 culture medium: DMEM+10% FBS+0.01 mg/mL insulin
(1) Cells grown to 80% (in exponential growth phase) were digested with pancreatin, and were collected by centrifugation. MDA-MB-435S cells and U87MG cells were re-suspended in a FBS-free culture medium, counted and inoculated to a 96-well plate; MDA-MB-435S cells were inoculated at 3000 cells/well/81 μL, and U87MG cells were inoculated at 4000 cells/well/81 μL. MCF-7 cells were resuspended in a culture medium containing 1% FBS, counted and inoculated to a 96-well plate at 4000 cell/well/82 μL. The cells were incubated in a cell incubator at 37° C.
(2) After 24 hours of incubation, FBS (9 μL) was added to each well of the MDA-MB-435S cells and U87MG cells, and 8 μL of FBS was added to each well of the MCF-7 cells, so as to obtain a final FBS concentration of 10%.
(3) A different concentration of 10-fold test compound (10 μL) was added to each well to obtain a final concentration of test compound of 10 μM, 2.5 μM, 625 nM, 156 nM, 39 nM, 9.8 nM or 2.5 nM, respectively, with 3 repeated wells/group, and the cells were incubated at 37° C. for 72 hours.
(4) 10-fold BrdU solution (10 μL) was added to each well, and the cells were incubated in the incubator for 4 hours, followed by discarding the culture medium.
(5) Fixing/denaturation solution (10 μL) was added to each well, and the cells were incubated at room temperature for 30 minutes, followed by discarding the solution.
(6) 1-fold detection antibody solution (100 μL) was added to each well, the cells were incubated at room temperature for 1 hour, followed by discarding the solution, and the cells were washed with 1-fold washing solution (200 μL/well) three times.
(7) 1-fold HRP-labelled secondary antibody solution (100 μL) was added to each well, the cells were incubated at room temperature for 30 minutes, followed by discarding the solution, and the cells were washed with 1-fold washing solution (200 μL/well) three times.
(8) TMB substrate solution (100 μL) was added to each well, and the cells were incubated at room temperature for 30 minutes.
(9) Stop solution (100 μL) was added to each well, and the OD value at 450 nm was measured by a microplate reader.
1) Cell survival rate (%)=(ODtest compound−ODblank control)/(ODnormal cell control−ODblank control)×100%,
2) The data was processed by GraphPad Prism 5 software to obtain the curve and IC50 values.

For assay [3], the system named is neointima formation. The settings on record: rats; cited from earlier work.

Usually IC50 stands for the point on the concentration scale where inhibition reaches its midpoint. Low values mean greater potency, high ones weaker potency. “Abemaciclib [LY2834219, reference compound]”: the clinical benefit rate in assay [1] is on record as 61%. Moreover, the midpoint of inhibition in assay [2], the IC50, lay at 0.12 µM. For the molecule `COc1ccc(CNc2nc(N(CCO)CCO)nc3c2ncn3C(C)C)cc1` [CVT-313], the “inhibition of neointima formation” value in assay [3] is recorded as “greater than 80%”.
